Where “and” joins values, the source holds several entries; their conditions need not be identical. Equal values may be shown once. Inconclusive results and toxic doses are left out. No stated cut-off is given here; in the data, active means T/C of 150% or more; inactive means T/C below 125%.
System: L1210 leukemia ip in BDF1 mice, survival T/C
Assay: NCI In Vivo Anticancer Drug Screen. Data for tumor model L1210 Leukemia (intraperitoneal) in B6D2F1 (BDF1) mice
Conditions: endpoint: mean survival time, higher = longer survival
Summary of the method: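 Transplanted-tumor mice were given test agent; controls received vehicle only. Survival readings from the two groups were divided (treated over control).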

[1] = dose: 50.0 mg/kg/injection, schedule: Q01DX001 (ip), vehicle: carboxymethylcellulose (CMC)
[2] = dose: 100.0 mg/kg/injection, schedule: Q01DX001 (ip), vehicle: carboxymethylcellulose (CMC)
[3] = dose: 100.0 mg/kg/injection, schedule: Q01DX009 (ip), vehicle: saline
[4] = dose: 100.0 mg/kg/injection, schedule: Q04DX003 (ip), vehicle: saline
[5] = dose: 200.0 mg/kg/injection, schedule: Q01DX009 (ip), vehicle: saline
[6] = dose: 200.0 mg/kg/injection, schedule: Q04DX003 (ip), vehicle: saline
[7] = dose: 400.0 mg/kg/injection, schedule: Q01DX009 (ip), vehicle: saline
[8] = dose: 400.0 mg/kg/injection, schedule: Q04DX003 (ip), vehicle: saline
[9] = dose: 100.0 mg/kg/injection, schedule: Q04DX002 (ip), vehicle: Klucel (hydroxypropylcellulose) (HPC)
[10] = dose: 200.0 mg/kg/injection, schedule: Q04DX002 (ip), vehicle: Klucel (hydroxypropylcellulose) (HPC)
[11] = dose: 400.0 mg/kg/injection, schedule: Q04DX002 (ip), vehicle: Klucel (hydroxypropylcellulose) (HPC)
[12] = dose: 100.0 mg/kg/injection, schedule: Q04DX003 (ip), vehicle: saline with Tween-80
[13] = dose: 200.0 mg/kg/injection, schedule: Q04DX003 (ip), vehicle: saline with Tween-80
[14] = dose: 400.0 mg/kg/injection, schedule: Q04DX003 (ip), vehicle: saline with Tween-80
[15] = dose: 200.0 mg/kg/injection, schedule: Q01DX001 (ip), vehicle: carboxymethylcellulose (CMC)
[16] = dose: 400.0 mg/kg/injection, schedule: Q01DX001 (ip), vehicle: carboxymethylcellulose (CMC)
[17] = dose: 100.0 mg/kg/injection, schedule: Q04DX003 (ip), vehicle: Klucel (hydroxypropylcellulose) (HPC)
[18] = dose: 200.0 mg/kg/injection, schedule: Q04DX003 (ip), vehicle: Klucel (hydroxypropylcellulose) (HPC)
[19] = dose: 400.0 mg/kg/injection, schedule: Q04DX003 (ip), vehicle: Klucel (hydroxypropylcellulose) (HPC)
[20] = dose: 100.0 mg/kg/injection, schedule: Q01DX001 (ip), vehicle: saline
[21] = dose: 200.0 mg/kg/injection, schedule: Q01DX001 (ip), vehicle: saline
[22] = dose: 50.0 mg/kg/injection, schedule: Q01DX001 (ip), vehicle: saline
[23] = dose: 400.0 mg/kg/injection, schedule: Q01DX001 (ip), vehicle: saline

Measured: T/C

CCOC(=O)C(CC)(OC(C)=O)C(=O)C(O)C1c2nc3ccccc3cc2CN1C(=O)CCOCc1ccccc1 (stereo not drawn)
inactive: dose: 10.0 mg/kg/injection, schedule: Q07DX002 (ip), vehicle: alcohol 99 % of control | dose: 20.0 mg/kg/injection, schedule: Q07DX002 (ip), vehicle: alcohol 101 % of control | dose: 40.0 mg/kg/injection, schedule: Q07DX002 (ip), vehicle: alcohol 106 % of control | dose: 80.0 mg/kg/injection, schedule: Q07DX002 (ip), vehicle: alcohol 94 % of control

CSc1ncnc2c1N=CNN2
inactive: [1] 94 % of control | [2] 95 % of control

CN(C)CCNS(=O)(=O)N(C)C
inactive: [3] 102 % of control | [4] 95 % of control | [5] 102 % of control | [6] 100 % of control | [7] 108 % of control | [8] 97 % of control

N#CC1c2ccccc2-c2ccccc2N1C(=O)c1ccccc1 (stereo not drawn)
inactive: [9] 93 % of control | [10] 96 % of control | [11] 107 % of control

COc1ccc(C(O)c2ccccn2)cc1 (stereo not drawn)
inactive: [12] 90 % of control | [13] 98 % of control | [14] 95 % of control

C/C(=C(/CCO)SCCC(=O)c1ccc(C)cc1)N(C=O)Cc1cnc(C)nc1N
inactive: [4] 97 % of control | [6] 97 % of control | [8] 93 % of control

COC(=O)C12C=CC(C1)n1c(=O)n(-c3ccccc3)c(=O)n12 (stereo not drawn)
inactive: [12] 97 % of control | [13] 105 % of control | [14] 103 % of control

CC(=S)Oc1cccc(C)c1
inactive: [1] 102 % of control | [2] 98 % of control | [15] 96 % of control | [16] 104 % of control

CCOC(=O)CN(C(=O)OCC)C(OCC)OCC
inactive: dose: 100.0 mg/kg/injection, schedule: Q01DX009 (ip), vehicle: saline with Tween-80 95 % of control | dose: 200.0 mg/kg/injection, schedule: Q01DX009 (ip), vehicle: saline with Tween-80 104 % of control | dose: 400.0 mg/kg/injection, schedule: Q01DX009 (ip), vehicle: saline with Tween-80 93 % of control

O=C(COc1ccc(Cl)cc1Cl)Nc1ccc(-c2ccc(NC(=O)COc3ccc(Cl)cc3Cl)cc2)cc1
inactive: dose: 50.0 mg/kg/injection, schedule: Q04DX002 (ip), vehicle: Klucel (hydroxypropylcellulose) (HPC) 89 % of control | [9] 89 % of control | [10] 100 % of control

CCOC(=O)c1cnc(SC)nc1N/N=C/c1ccccc1
inactive: [17] 100 % of control | [18] 101 % of control | [19] 103 % of control

Nn1c(=S)[nH]n2cnnc12
inactive: [2] 98 % of control | [15] 106 % of control | [16] 95 % of control

Cc1coc(NS(=O)(=O)c2ccc(N=Nc3ccc(O)c4ncccc34)cc2)c1C
inactive: [20] 102 % of control | [21] 108 % of control

CC1OC(O[C@@H]2C=C3CC[C@@H]4[C@H](CC[C@]5(C)[C@@H](c6ccc(=O)oc6)CC[C@]45O)[C@@]3(C)CC2)C(O)C(O)C1O (stereo partly drawn)
inactive: dose: 10.0 mg/kg/injection, schedule: Q01DX001 (ip), vehicle: saline 101 % of control

CC(C)=CCC/C(C)=C\COc1ccc(C(C)(C)C)cc1
inactive: [9] 96 % of control | [10] 100 % of control | [11] 89 % of control

C[CH2][Pb]([CH2]C)([CH2]C)[O]C(C)=O
inactive: dose: 0.62 mg/kg/injection, schedule: Q01DX009 (ip), vehicle: Klucel (hydroxypropylcellulose) (HPC) 96 % of control | dose: 1.25 mg/kg/injection, schedule: Q01DX009 (ip), vehicle: Klucel (hydroxypropylcellulose) (HPC) 102 % of control | dose: 2.5 mg/kg/injection, schedule: Q01DX009 (ip), vehicle: Klucel (hydroxypropylcellulose) (HPC) 93 % of control and 94 % of control | dose: 5.0 mg/kg/injection, schedule: Q01DX001 (ip), vehicle: carboxymethylcellulose (CMC) 100 % of control | dose: 5.0 mg/kg/injection, schedule: Q04DX003 (ip), vehicle: Klucel (hydroxypropylcellulose) (HPC) 90 % of control | dose: 10.0 mg/kg/injection, schedule: Q01DX001 (ip), vehicle: carboxymethylcellulose (CMC) 103 % of control | dose: 10.0 mg/kg/injection, schedule: Q04DX003 (ip), vehicle: Klucel (hydroxypropylcellulose) (HPC) 95 % of control

CCCCCCCCCCOC(CN)C(Cl)(Cl)Cl (stereo not drawn)
inactive: dose: 12.5 mg/kg/injection, schedule: Q01DX009 (ip), vehicle: saline with Tween-80 93 % of control | dose: 12.5 mg/kg/injection, schedule: Q04DX003 (ip), vehicle: saline with Tween-80 98 % of control | dose: 25.0 mg/kg/injection, schedule: Q01DX009 (ip), vehicle: saline with Tween-80 97 % of control | dose: 25.0 mg/kg/injection, schedule: Q04DX003 (ip), vehicle: saline with Tween-80 101 % of control | dose: 50.0 mg/kg/injection, schedule: Q04DX003 (ip), vehicle: saline with Tween-80 103 % of control

Cc1ccc(C(C#N)c2ccc(N)cc2)cc1 (stereo not drawn)
inactive: [22] 98 % of control | [20] 101 % of control | [21] 101 % of control

Nc1nc(SCc2ccccc2)c2ncn(C3CCCC3)c2n1
inactive: [2] 95 % of control | [15] 95 % of control | [16] 92 % of control | dose: 700.0 mg/kg/injection, schedule: Q01DX015 (ip), vehicle: carboxymethylcellulose (CMC) 101 % of control | dose: 800.0 mg/kg/injection, schedule: Q01DX015 (ip), vehicle: carboxymethylcellulose (CMC) 101 % of control

O=C(O)Cc1cccnc1
inactive: [3] 102 % of control | [4] 101 % of control | [5] 100 % of control | [6] 104 % of control | [7] 89 % of control | [8] 95 % of control

CN(CCO)C1CCCCCCC1
inactive: dose: 100.0 mg/kg/injection, schedule: Q01DX001 (ip), vehicle: acetone 100 % of control

Cc1cccc(OCC(O)CN2CCCCC2)c1 (stereo not drawn)
inactive: dose: 25.0 mg/kg/injection, schedule: Q01DX009 (ip), vehicle: saline 94 % of control | dose: 50.0 mg/kg/injection, schedule: Q01DX009 (ip), vehicle: saline 102 % of control and 105 % of control | [3] 120 % of control

CCC(COC(=O)c1ccccc1)(COC(=O)c1ccccc1)[N+](=O)[O-]
inactive: dose: 100.0 mg/kg/injection, schedule: Q01DX001 (ip), vehicle: Klucel (hydroxypropylcellulose) (HPC) 105 % of control | dose: 200.0 mg/kg/injection, schedule: Q01DX001 (ip), vehicle: Klucel (hydroxypropylcellulose) (HPC) 95 % of control | dose: 400.0 mg/kg/injection, schedule: Q01DX001 (ip), vehicle: Klucel (hydroxypropylcellulose) (HPC) 108 % of control

O=C(O)c1c(O)c2cc(Cl)ccc2oc1=O
inactive: [20] 98 % of control | [23] 98 % of control

O=C(/C=C/c1ccccc1)Nc1cc(Cl)ccc1Cl
inactive: dose: 100.0 mg/kg/injection, schedule: Q01DX009 (ip), vehicle: Klucel (hydroxypropylcellulose) (HPC) 110 % of control | [17] 97 % of control | dose: 200.0 mg/kg/injection, schedule: Q01DX009 (ip), vehicle: Klucel (hydroxypropylcellulose) (HPC) 114 % of control | [18] 89 % of control | dose: 400.0 mg/kg/injection, schedule: Q01DX009 (ip), vehicle: Klucel (hydroxypropylcellulose) (HPC) 96 % of control | [19] 94 % of control

O=C(/C(=C\c1ccccc1)Oc1ccc(S[N+](=O)[O-])cc1)c1ccccc1
inactive: [2] 95 % of control | [15] 92 % of control | [16] 95 % of control

CCCCN(CCCC)CCSc1c(Cl)c(Cl)c(Cl)c(Cl)c1Cl
inactive: dose: 320.0 mg/kg/injection, schedule: Q01DX Z (ip), vehicle: saline 99 % of control | dose: 480.0 mg/kg/injection, schedule: Q01DX Z (ip), vehicle: saline 90 % of control

CCC(=O)N(CC)CC
inactive: [22] 102 % of control | [20] 93 % of control | [23] 93 % of control

CCCc1cc(C)cc(N=Cc2ccccc2)c1O
inactive: [12] 101 % of control | [13] 97 % of control | [14] 98 % of control

— PubChem BioAssay AID248 (DTP/NCI, 2004)
